Assay results reported in patent publication US8614091B2, “PNMT as a novel marker for progenitor cells” (priority 2004, dated 2013).
Entries after “also recorded” stand apart in the source; their conditions may differ.

Tests used:
Dbh-/- embryos = details: DOPS in the maternal drinking water; cited from earlier work
[1] = test system: neonatal rat cardiomyocytes; test: Beating rate measurements in cultured neonatal rat cardiomyocytes; assay type: cell-based; details: for decrease in the beating rate: acute, spontaneously beating cultures after 7 d; for effect on beating rate, acute treatment: increasing concentrations, within seconds to 1-2 min after drug application, normal serum
Procedure: D) Preparation of rat neonatal cardiomyocyte cultures. […] The heart was immediately removed under aseptic conditions and placed in ice-cold sterile HBSS (no Ca^++ or Mg^++). Enzymatic and mechanical dissociation of cardiomyocytes was then performed using the Neonatal Cardiomyocyte Isolation System supplied by Worthington Biochemicals (Freehold, N.J., U.S.A.). The hearts were minced on ice and digested overnight at 4° C. with purified trypsin (10 μg/mL) in HBSS. On the following morning, the digested tissue was transferred to a 50-mL conical tube and purified soybean trypsin inhibitor (40 μg/mL) was added to terminate trypsinization. The tissue was oxygenated and warmed to 37° C. […] C. with intermittent gentle swirling. Mild trituration was then used to mechanically dissociate the digested tissue, and single-cell suspensions were obtained by filtering this digested material through 70 μm sterile mesh filters. The cells were collected by low-speed centrifugation. The supernatant was discarded and the cell pellet resuspended in DMEM (high glucose, Biofluids, Rockville, Md., U.S.A.) culture medium containing 10% defined iron-supplemented bovine calf serum (Hyclone Laboratories, Logan, Utah, U.S.A.), 2 mM glutamine, and gentamicin sulfate (50 μg/mL). In some experiments, the serum was pretreated with charcoal before adding it to the media (10% volume as above) to remove possible trace amounts of catecholamines that may have been present The cells were then “preplated” to remove fibroblasts, and the remaining cells counted and seeded onto multi-well culture plates at a density of 75,000 cells per cm^2. The media was changed every 2-3 d beginning the day after seeding. Bromodeoxyuridine (0.1 mM) was added to the culture media for the first 3 d to further minimize contamination from fibroblasts.
E) Beating rate measurements. Beating activity of cultured cardiomyocytes was measured by edge-detection using photodiode sensors attached to a monitor screen depicting beating cells viewed by videomicroscopy. […] The photodiode sensor signal was filtered with an 8-pole Bessel low-pass filter (Model 900CT, Frequency Devices, Inc., Havervill, Mass., U.S.A.) with a cutoff frequency of 1000 Hz, and relayed to a PC equipped with a National Instruments data acquisition board and LabView 4.0 processing software. Parallel outputs were also directed to a Gould TA550 chart recorder and an oscilloscope. Data were continuously acquired and stored to disk for later analysis. Drugs were added and immediately mixed in the media overlying the cells in each well. Predrug (baseline) measurements were performed first, and the indicated drug(s) were added as a 100× stock to the preexisting media on each well, and rapidly mixed. Beating rates were remeasured within 2-3 min after drug addition.
F) Data analysis. The number of beating rate measurements was typically obtained from different wells of multi-well plates (usually six wells per plate), seeded from the same preparation of myocytes. Measurements were obtained immediately before and after the addition of specified drugs. In the reserpine experiment, beating rate measurements were obtained at multiple time-points after drug administration. Each experiment was replicated at least twice using independently isolated cultures, and a representative result from each is shown. Unless otherwise indicated, all beating rate measurements were performed on cells that had been cultured for 7-9 d. All data are expressed as mean.+−.SEM. Statistical significance was assessed by one-way ANOVA, with p<0.05 required to reject the null hypothesis. Posthoc testing was performed using Bonferroni's correction for multiple comparisons.

N[C@H](C(=O)O)[C@H](O)c1ccc(O)c(O)c1 [DOPS]
rescue of Dbh-/- embryos that die of cardiovascular failure in utero (Dbh-/- embryos): rescued

CNC[C@H](O)c1cccc(O)c1 [L-phenylephrine]
reversal of prazosin-induced decrease in beating rate ([1]; L-phenylephrine at increasing concentrations, in presence of prazosin 1 μM, charcoal-stripped serum): dose-dependent reversal; also recorded: reversed

CNC[C@H](O)c1ccc(O)c(O)c1 [epinephrine]
rescue of timolol-suppressed beating rate in charcoal-stripped serum media ([1]; epinephrine 1 μM added in presence of timolol 10 μM): fully rescued; also recorded: full recovery of beating rate | duration of recovery of beating rate ([1]; epinephrine 1 μM in presence of timolol 10 μM, charcoal-stripped serum): 30 to 60 min

NC[C@H](O)c1ccc(O)c(O)c1 [norepinephrine]
reversal of reserpine-induced decrease in beating rate ([1]; NE 1 μM, about 2 min after addition, after 8 h of reserpine 2.5 μM): largely reversed

COc1cc2nc(N3CCN(C(=O)c4ccco4)CC3)nc(N)c2cc1OC [prazosin]
decrease in the beating rate ([1]; 1 μM prazosin): ~25% | decrease in the beating rate ([1]; 10 μM prazosin): > 85% | effect on beating rate, acute treatment [1]: dose-dependent decreases in the beating rate | effect on beating rate in media with charcoal-stripped serum ([1]; prazosin 1 μM vs baseline control): significant decreases in beating rates; also recorded: significant reduction in the beating rate

COC(=O)[C@H]1[C@H]2C[C@@H]3c4[nH]c5cc(OC)ccc5c4CCN3C[C@H]2C[C@@H](OC(=O)c2cc(OC)c(OC)c(OC)c2)[C@@H]1OC [reserpine]
effect on beating rate, catecholamine depletion ([1]; increasing concentrations of reserpine, measured up to 8 h): Significant dose-dependent decreases in beating rates

CC(C)(C)NC[C@H](O)COc1nsnc1N1CCOCC1 [timolol]
effect on beating rate, acute treatment [1]: significant concentration-dependent slowing in the beating rate | effect on beating activity in media with charcoal-stripped serum ([1]; timolol 10 μM, continuous, assessed at 24 and 72 h): strongly suppressed beating activity
